Assay results published in article PMC6072100, “Exploring the links between peptoid antibacterial activity and toxicity” (MedChemComm, 2017).
Square brackets hold non-standard residues; d marks the D form. Peptide text beside a SMILES is read from it. Gly(N-(CH2)6NH2) = NCCCCCCNCC(=O)O; Nspe = C[C@H](NCC(=O)O)c1ccccc1; Nphe = O=C(O)CNCc1ccccc1; Nlys = NCCCCNCC(=O)O

Columns and labels:
HaCaT cells = assay: Skin cell toxicity assay with HaCaT (alamarBlue); assay type: cell-based, human
Method in brief: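 HaCaT cells seeded at 2x10^4 per well 24 hours before 1-hour exposure to a 2–100 µM triplicate dilution series in DMEM high glucose with 10% FBS at 37 °C, 5% CO2. Viability assessed with alamarBlue; ED50 defined as dose killing 50% of cells, derived from dose-response data.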

HepG2 cells = assay: Cytotoxicity assay with HepG2 (alamarBlue); assay type: cell-based, human
Method in brief: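 HepG2 cells (2 × 10^4/well, seeded 1 day earlier) were exposed to compounds (2–100 μM dilution series, triplicate) for 1 h in reduced volume, then diluted with medium and incubated 24 h at 37 °C. Viability was read by alamarBlue after 2 h (Ex 560/Em 600 nm), and ED50 (dose killing 50% of cells) came from dose-response curves.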

[1] = dose that kills 50% of cells, 2–100 μM, 1 h with compound then 24 h, alamarBlue

Row | Compound | ED50 HaCaT (HaCaT cells; human, HaCaT cells (keratinocytes), 24 h) | ED50 HepG2 (HepG2 cells; human, HepG2 cells, 24 h) | ED50 HaCaT (HaCaT cells; [1]) | ED50 HepG2 (HepG2 cells; [1])
1 | NCCCCCCNCC(=O)N(CC(=O)N(CC(=O)N(CCCCCCN)CC(=O)N(CC(=O)N(CC(=O)N(CCCCCCN)CC(=O)N(CC(=O)N(CC(N)=O)Cc1ccccc1)Cc1ccccc1)Cc1ccccc1)Cc1ccccc1)Cc1ccccc1)Cc1ccccc1 [Peptoid 2, (NahNpheNphe)3] (H-[Gly(N-(CH2)6NH2)][Nphe][Nphe][Gly(N-(CH2)6NH2)][Nphe][Nphe][Gly(N-(CH2)6NH2)][Nphe][Nphe]-NH2) | >100 µM | >100 µM | – | –
2 | C[C@@H](c1ccccc1)N(CC(N)=O)C(=O)CN(C(=O)CN(CCCCN)C(=O)CN(C(=O)CN(C(=O)CN(CCCCN)C(=O)CN(C(=O)CN(C(=O)CN(CCCCN)C(=O)CN(C(=O)CN(C(=O)CNCCCCN)[C@@H](C)c1ccccc1)[C@@H](C)c1ccccc1)[C@@H](C)c1ccccc1)[C@@H](C)c1ccccc1)[C@@H](C)c1ccccc1)[C@@H](C)c1ccccc1)[C@@H](C)c1ccccc1 [Peptoid 13, (NLysNspeNspe)4] (H-[Nlys][Nspe][Nspe][Nlys][Nspe][Nspe][Nlys][Nspe][Nspe][Nlys][Nspe][Nspe]-NH2) | – | – | 20 µM | 29 µM
3 | C[C@@H](c1ccccc1)N(CC(N)=O)C(=O)CN(C(=O)CN(CCN)C(=O)CN(C(=O)CN(C(=O)CN(CCN)C(=O)CN(C(=O)CN(C(=O)CNCCN)[C@@H](C)c1ccccc1)[C@@H](C)c1ccccc1)[C@@H](C)c1ccccc1)[C@@H](C)c1ccccc1)[C@@H](C)c1ccccc1 [Peptoid 17, (NaeNspeNspe)3] | – | – | >100 µM | >100 µM
